Data on 16 molecules can be found in ChEMBL document CHEMBL1150287.

The experiment has as its target Sodium-dependent serotonin transporter (Homo sapiens) (UniProt P31645). To be noted: COS-7, at 100 nM.
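Further: measures inhibition of [3H]5-hydroxytryptamine uptake through human SERT expressed in COS-7 cells.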

Chain of Sodium-dependent serotonin transporter (Homo sapiens) (P31645 whole entry, looked up): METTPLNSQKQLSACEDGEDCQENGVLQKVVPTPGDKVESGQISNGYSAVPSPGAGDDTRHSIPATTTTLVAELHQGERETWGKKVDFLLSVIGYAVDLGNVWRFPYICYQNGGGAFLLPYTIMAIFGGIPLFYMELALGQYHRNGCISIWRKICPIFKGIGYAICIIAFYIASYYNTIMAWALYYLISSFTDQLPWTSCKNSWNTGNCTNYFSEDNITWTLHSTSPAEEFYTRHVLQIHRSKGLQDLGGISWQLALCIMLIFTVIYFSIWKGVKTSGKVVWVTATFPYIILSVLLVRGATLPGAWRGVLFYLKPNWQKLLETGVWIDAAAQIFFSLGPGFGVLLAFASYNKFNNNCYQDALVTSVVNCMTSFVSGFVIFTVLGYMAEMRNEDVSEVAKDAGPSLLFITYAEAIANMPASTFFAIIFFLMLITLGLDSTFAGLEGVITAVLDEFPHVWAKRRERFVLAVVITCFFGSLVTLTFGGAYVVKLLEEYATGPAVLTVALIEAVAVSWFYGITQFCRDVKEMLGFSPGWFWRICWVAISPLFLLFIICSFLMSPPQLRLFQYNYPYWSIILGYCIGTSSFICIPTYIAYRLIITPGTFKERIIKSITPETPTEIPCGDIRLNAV
Description: Inhibition of [3H]5-hydroxytryptamine reuptake at human SERT expressed in african green monkey COS7 cells at 100 nM

For the molecule `CNCCCC1(c2ccccc2)OCc2ccccc21` (stereo unspecified), the inhibition (as a rule, the change of the read-out against control, counted positive when it falls) is 9.76%. `CN(C)CCCC1(c2ccccc2)OC(C)(C)c2cc(C#N)ccc21` (stereo unspecified) gave an inhibition of 0.69%. The molecule `CNCCCC1(c2ccc(F)cc2)OC(C)(C)c2cc(C#N)ccc21` (stereo unspecified) displayed an inhibition of 6.56%.

The molecule `CN(C)CCCC1(c2ccccc2)OCc2cc(C#N)ccc21` (stereo unspecified) showed an inhibition of 27.4%. For `CNCCCC1(c2ccccc2)OC(C)(C)c2ccccc21` (stereo unspecified) the value was 1.65%; for `CNCCC(Oc1ccccc1OC)c1ccccc1` (stereo unspecified), 12.8%; for `CNCCCC1(c2ccccc2)OCc2cc(C#N)ccc21` (stereo unspecified), 53.9%. Consider `CN(C)CCCC1(c2ccccc2)OC(C)(C)c2ccccc21` (stereo unspecified), for which the inhibition is 0.31%. For the molecule `CNCCCC1(c2ccccc2)OC(C)(C)c2cc(C#N)ccc21` (stereo unspecified), the inhibition is 7.23%.

Molecule `CNCCCC1(c2ccc(F)cc2)OCc2ccccc21` (stereo unspecified) yielded an inhibition of 20.8%.

The molecule `CN(C)CCCC1(c2ccc(F)cc2)OC(C)(C)c2cc(C#N)ccc21` (stereo unspecified) had an inhibition of 0.74%.

`CN(C)CCCC1(c2ccccc2)OCc2ccccc21` (stereo unspecified) had an inhibition of 8.66%.

`CNCCCC1(c2ccc(F)cc2)OCc2cc(C#N)ccc21` (stereo unspecified) displayed an inhibition of 55.5%. The result for `CN(C)CCCC1(c2ccc(F)cc2)OC(C)(C)c2ccccc21` (stereo unspecified) reads 0.71%.

Take `CN(C)CCCC1(c2ccc(F)cc2)OCc2ccccc21` (stereo unspecified): the inhibition came to 26.6%. For `CNCCCC1(c2ccc(F)cc2)OC(C)(C)c2ccccc21` (stereo unspecified) the value was 3.89%.
